pEC50: −log10 of the molar value. “And” between values parts separate entries of the source, which are not always exact repeats. Equal values may be shown once. Read-outs that look alike come from different tables or passages of the source.
Key:
Assay in all cases: nanoBRET off-target validation
Format in all cases: cell-based
[1] = molecular target: T1, STK17B (Homo sapiens, UniProt O94768); conditions: STK17B, two replicates
T1 construct: host or cells: HEK293T (ATCC CRL-3216)
T1 sequence (O94768 1-372): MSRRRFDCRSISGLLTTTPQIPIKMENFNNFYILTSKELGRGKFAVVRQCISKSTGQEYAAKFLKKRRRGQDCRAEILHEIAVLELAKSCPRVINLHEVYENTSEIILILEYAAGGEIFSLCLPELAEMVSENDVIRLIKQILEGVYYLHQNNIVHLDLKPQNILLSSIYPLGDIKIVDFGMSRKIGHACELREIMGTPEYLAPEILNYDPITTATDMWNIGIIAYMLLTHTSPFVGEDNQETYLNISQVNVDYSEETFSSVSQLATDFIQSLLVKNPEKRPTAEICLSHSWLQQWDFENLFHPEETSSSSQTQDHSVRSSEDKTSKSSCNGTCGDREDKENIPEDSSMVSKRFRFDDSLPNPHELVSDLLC
Description: (§1) The assay was performed as described previously ([61]). In brief, full-length kinases as listed in table S6 were obtained as plasmids cloned in frame with terminal NanoLuc-fusion (gift from Promega; table S6). […] Serially diluted inhibitor and corresponding tracer as listed in table S6 at the Tracer KD concentration taken from TracerDB (tracerdb.org) ([62]) were pipetted into white 384-well plates (Greiner, 781207) using an ECHO acoustic dispenser (Labcyte). The corresponding protein-transfected cells were added and reseeded at a density of 2 × 10^5 cells/ml after trypsinization and resuspending in Opti-MEM without phenol red (Life Technologies). The system was allowed to equilibrate for 3 hours at 37°C/5% CO2 before bioluminescence resonance energy transfer (BRET) measurements. To measure BRET, NanoBRET NanoGlo Substrate + extracellular NanoLuc Inhibitor (Promega, N2540) was added as per the manufacturer’s protocol, and filtered luminescence was measured on a PHERAstar plate reader (BMG Labtech) equipped with a luminescence filter pair [450-nm BP filter (donor) and 610-nm LP filter (acceptor)]. […] (For step-by-step protocol, see www.eubopen.org/sites/www.eubopen.org/files/attachments/2021/NanoBRET-IC50_v1_0.pdf.)

[2] = molecular target: T2, DYRK2 (Homo sapiens, UniProt Q92630)
T2 construct: host or cells: HEK293T (ATCC CRL-3216)
T2 sequence (Q92630 1-601): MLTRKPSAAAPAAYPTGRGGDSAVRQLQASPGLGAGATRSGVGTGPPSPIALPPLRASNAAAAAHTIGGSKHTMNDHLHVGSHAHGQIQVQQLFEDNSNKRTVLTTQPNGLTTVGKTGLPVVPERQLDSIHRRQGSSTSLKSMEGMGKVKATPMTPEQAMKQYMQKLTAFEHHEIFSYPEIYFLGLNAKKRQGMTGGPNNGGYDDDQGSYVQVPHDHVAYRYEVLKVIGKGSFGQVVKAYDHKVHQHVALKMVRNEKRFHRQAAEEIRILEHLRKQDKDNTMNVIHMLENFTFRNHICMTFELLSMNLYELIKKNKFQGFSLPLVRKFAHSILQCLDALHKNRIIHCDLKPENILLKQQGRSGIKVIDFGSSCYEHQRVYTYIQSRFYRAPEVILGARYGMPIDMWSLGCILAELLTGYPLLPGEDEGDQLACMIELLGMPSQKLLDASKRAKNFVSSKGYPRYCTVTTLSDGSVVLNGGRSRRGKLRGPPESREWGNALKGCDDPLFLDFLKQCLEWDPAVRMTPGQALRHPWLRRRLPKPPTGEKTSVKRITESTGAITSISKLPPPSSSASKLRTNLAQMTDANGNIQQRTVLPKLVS
Description: as §1

[3] = molecular target: T3, JNK3 (Homo sapiens, UniProt P53779)
T3 construct: host or cells: HEK293T (ATCC CRL-3216)
T3 sequence (P53779 whole entry): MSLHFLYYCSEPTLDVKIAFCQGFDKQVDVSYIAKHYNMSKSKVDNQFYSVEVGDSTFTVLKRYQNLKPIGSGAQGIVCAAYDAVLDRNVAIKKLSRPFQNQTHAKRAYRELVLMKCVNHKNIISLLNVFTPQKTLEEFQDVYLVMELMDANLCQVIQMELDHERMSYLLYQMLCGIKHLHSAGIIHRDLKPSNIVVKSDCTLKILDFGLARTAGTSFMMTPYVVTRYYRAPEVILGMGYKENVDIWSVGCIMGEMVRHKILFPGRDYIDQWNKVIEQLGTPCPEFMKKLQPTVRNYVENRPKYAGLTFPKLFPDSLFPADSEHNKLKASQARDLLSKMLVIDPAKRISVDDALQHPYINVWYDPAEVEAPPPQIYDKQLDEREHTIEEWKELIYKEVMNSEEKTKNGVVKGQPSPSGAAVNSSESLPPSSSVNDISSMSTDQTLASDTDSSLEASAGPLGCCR
Description: as §1

With `CCSc1nc(NC)c2c(-c3cccc(NC(=O)Nc4cc(C(C)(C)C)nn4-c4ccc(C)cc4)c3)c[nH]c2n1` [Compound 32] the “nanoBRET response normalized to 0% (no tracer) and 100% (no inhibitor) control” value ([1]; inhibitor 250 nM, listed as RN341, […]) was 93.8885%, the NanoBRET tracer signal (% of no-inhibitor control) at […] ([1]; inhibitor 250 nM, read-out: nanoBRET response normalized to 0% (no tracer) and 100% (no inhibitor) control) was 111% and the “nanoBRET response normalized to 0% (no tracer) and 100% (no inhibitor) control” value ([1]; inhibitor 500 nM, listed as RN341, 0.5 µM) was 103.232% and 77.6568%. The NanoBRET tracer signal (% of no-inhibitor control) at […] ([1]; inhibitor 2500 nM, read-out: nanoBRET response normalized to 0% (no tracer) and 100% (no inhibitor) control) was 122% and 101%, the “nanoBRET response normalized to 0% (no tracer) and 100% (no inhibitor) control” value ([1]; inhibitor 5000 nM, listed as RN341, 5 µM) was 104.626% and 83.1368% and the “nanoBRET response normalized to 0% (no tracer) and 100% (no inhibitor) control” value ([1]; inhibitor 25000 nM, listed as RN341, 25 µM) was 75.7774%. For the same compound, the NanoBRET tracer signal (% of no-inhibitor control) at 25 µM ([1]; inhibitor 25000 nM, read-out: nanoBRET response normalized to 0% (no tracer) and 100% (no inhibitor) control) was 80.3%, the pEC50 [2] was no more than 4.70 and the “nanoBRET response normalized to 0% (no tracer) and 100% (no inhibitor) control” value ([2]; DYRK2, inhibitor 8 nM, two replicates, listed as RN341, 0.008 µM) was 91.4839%. For the same compound, the remaining nanoBRET tracer signal (% of no-inhibitor control) at 0.008 µM ([2]; DYRK2, inhibitor 8 nM, two replicates, read-out: nanoBRET response normalized to 0% (no tracer) and 100% (no inhibitor) control) was 100%, the “nanoBRET response normalized to 0% (no tracer) and 100% (no inhibitor) control” value ([2]; DYRK2, inhibitor 16 nM, two replicates, listed as RN341, 0.016 µM) was 93.886% and the remaining nanoBRET tracer signal (% of no-inhibitor control) at 0.016 µM ([2]; DYRK2, inhibitor 16 nM, two replicates, read-out: nanoBRET response normalized to 0% (no tracer) and 100% (no inhibitor) control) was 98.2%. For the same compound, the “nanoBRET response normalized to 0% (no tracer) and 100% (no inhibitor) control” value ([2]; DYRK2, inhibitor 50 nM, two replicates, listed as RN341, 0.05 µM) was 96.6464%, the remaining nanoBRET tracer signal (% of no-inhibitor control) at 0.05 µM ([2]; DYRK2, inhibitor 50 nM, two replicates, read-out: nanoBRET response normalized to 0% (no tracer) and 100% (no inhibitor) control) was 100% and the remaining nanoBRET tracer signal (% of no-inhibitor control) at […] ([2]; DYRK2, inhibitor 250 nM, two replicates, read-out: nanoBRET response normalized to 0% (no tracer) and 100% (no inhibitor) control) was 102% and 94.4%. For the same compound, the “nanoBRET response normalized to 0% (no tracer) and 100% (no inhibitor) control” value ([2]; DYRK2, inhibitor 500 nM, two replicates, listed as RN341, 0.5 µM) was 90.6654%, the remaining nanoBRET tracer signal (% of no-inhibitor control) at 0.5 µM ([2]; DYRK2, inhibitor 500 nM, two replicates, read-out: nanoBRET response normalized to 0% (no tracer) and 100% (no inhibitor) control) was 98.4% and the “nanoBRET response normalized to 0% (no tracer) and 100% (no inhibitor) control” value ([2]; DYRK2, inhibitor 2500 nM, two replicates, listed as RN341, […]) was 86.4231%. For the same compound, the remaining nanoBRET tracer signal (% of no-inhibitor control) at […] ([2]; DYRK2, inhibitor 2500 nM, two replicates, read-out: nanoBRET response normalized to 0% (no tracer) and 100% (no inhibitor) control) was 88.8%, the “nanoBRET response normalized to 0% (no tracer) and 100% (no inhibitor) control” value ([2]; DYRK2, inhibitor 5000 nM, two replicates, listed as RN341, 5 µM) was 92.7606% and the remaining nanoBRET tracer signal (% of no-inhibitor control) at 5 µM ([2]; DYRK2, inhibitor 5000 nM, two replicates, read-out: nanoBRET response normalized to 0% (no tracer) and 100% (no inhibitor) control) was 83.2%. For the same compound, the “nanoBRET response normalized to 0% (no tracer) and 100% (no inhibitor) control” value ([2]; DYRK2, inhibitor 25000 nM, two replicates, listed as RN341, 25 µM) was 54.6216%, the remaining nanoBRET tracer signal (% of no-inhibitor control) at 25 µM ([2]; DYRK2, inhibitor 25000 nM, two replicates, read-out: nanoBRET response normalized to 0% (no tracer) and 100% (no inhibitor) control) was 47.6% and the pEC50 [3] was 4.82. For the same compound, the “nanoBRET response normalized to 0% (no tracer) and 100% (no inhibitor) control” value ([3]; JNK3, inhibitor 8 nM, two replicates, listed as RN341, 0.008 µM) was 99.6644%, the remaining nanoBRET tracer signal at 0.008 µM ([3]; JNK3, inhibitor 8 nM, two replicates, read-out: nanoBRET response normalized to 0% (no tracer) and 100% (no inhibitor) control) was 90% and the “nanoBRET response normalized to 0% (no tracer) and 100% (no inhibitor) control” value ([3]; JNK3, inhibitor 16 nM, two replicates, listed as RN341, 0.016 µM) was 91.5832%. For the same compound, the remaining nanoBRET tracer signal at 0.016 µM ([3]; JNK3, inhibitor 16 nM, two replicates, read-out: nanoBRET response normalized to 0% (no tracer) and 100% (no inhibitor) control) was 91.5%, the “nanoBRET response normalized to 0% (no tracer) and 100% (no inhibitor) control” value ([3]; JNK3, inhibitor 50 nM, two replicates, listed as RN341, 0.05 µM) was 98.9095% and the remaining nanoBRET tracer signal at 0.05 µM ([3]; JNK3, inhibitor 50 nM, two replicates, read-out: nanoBRET response normalized to 0% (no tracer) and 100% (no inhibitor) control) was 96.2%. The “nanoBRET response normalized to 0% (no tracer) and 100% (no inhibitor) control” value ([3]; JNK3, inhibitor 250 nM, two replicates, listed as RN341, […]) was 99.8628%, the remaining nanoBRET tracer signal at […] ([3]; JNK3, inhibitor 250 nM, two replicates, read-out: nanoBRET response normalized to 0% (no tracer) and 100% (no inhibitor) control) was 96.3% and the “nanoBRET response normalized to 0% (no tracer) and 100% (no inhibitor) control” value ([3]; JNK3, inhibitor 500 nM, two replicates, listed as RN341, 0.5 µM) was 92.6932%. For the same compound, the remaining nanoBRET tracer signal at 0.5 µM ([3]; JNK3, inhibitor 500 nM, two replicates, read-out: nanoBRET response normalized to 0% (no tracer) and 100% (no inhibitor) control) was 93.9%, the “nanoBRET response normalized to 0% (no tracer) and 100% (no inhibitor) control” value ([3]; JNK3, inhibitor 2500 nM, two replicates, listed as RN341, […]) was 84.3032% and the remaining nanoBRET tracer signal at […] ([3]; JNK3, inhibitor 2500 nM, two replicates, read-out: nanoBRET response normalized to 0% (no tracer) and 100% (no inhibitor) control) was 90.4%. For the same compound, the “nanoBRET response normalized to 0% (no tracer) and 100% (no inhibitor) control” value ([3]; JNK3, inhibitor 5000 nM, two replicates, listed as RN341, 5 µM) was 67.4443%, the remaining nanoBRET tracer signal at 5 µM ([3]; JNK3, inhibitor 5000 nM, two replicates, read-out: nanoBRET response normalized to 0% (no tracer) and 100% (no inhibitor) control) was 74.7% and the “nanoBRET response normalized to 0% (no tracer) and 100% (no inhibitor) control” value ([3]; JNK3, inhibitor 25000 nM, two replicates, listed as RN341, 25 µM) was 34.5338%. It also gave a remaining nanoBRET tracer signal at 25 µM ([3]; JNK3, inhibitor 25000 nM, two replicates, read-out: nanoBRET response normalized to 0% (no tracer) and 100% (no inhibitor) control) of 48.6%.

— PMC12136037, “Type II kinase inhibitors that target Parkinson’s disease–associated LRRK2” (Science Advances, 2025)
